From patent US12077503B2, “Substituted cyclic amides and their use as herbicides” (FMC CORPORATION, priority 2015, dated 2024)

Assays:
Type in all cases: in vivo
Kochia (Kochia scoparia) [1] = experiment: Test A preemergence; conditions: Bassia scoparia, pre-emergence, 240 h
Method in brief: (§1)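 Visual injury, scored on a 0–100 scale relative to untreated controls, was recorded about 10 d after application. Treatments were a preemergence soil spray over planted seeds or a postemergence spray on plants at the one- to two-leaf stage, 2 to 10 cm tall, all in loam soil–sand blend in the greenhouse.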

[2] = test system: barnyardgrass (Echinochloa crus-galli); experiment: Test A preemergence; conditions: Echinochloa crus-galli, pre-emergence, 240 h
Method in brief: as §1

[3] = test system: giant foxtail (Setaria faberii); experiment: Test A preemergence; conditions: Setaria faberi, pre-emergence, 240 h
Method in brief: as §1

[4] = test system: pigweed (Amaranthus retroflexus); experiment: Test A preemergence; conditions: Amaranthus retroflexus, pre-emergence, 240 h
[5] = test system: ragweed (common ragweed, Ambrosia elatior); experiment: Test A preemergence; conditions: Ambrosia artemisiifolia, pre-emergence, 240 h
Method in brief: as §1

[6] = test system: ryegrass, Italian (Italian ryegrass, Lolium multiflorum); experiment: Test A preemergence; conditions: Lolium multiflorum, pre-emergence, 240 h
Method in brief: as §1

[7] = test system: Galium (catchweed bedstraw, Galium aparine); experiment: Test A postemergence; conditions: Galium, post-emergence, 240 h, read-out: Plant response rating, Galium
Method in brief: as §1

Kochia (Kochia scoparia) [8] = experiment: Test A postemergence; conditions: Bassia scoparia, post-emergence, 240 h, read-out: Plant response rating, Kochia
Method in brief: as §1

[9] = test system: barnyardgrass (Echinochloa crus-galli); experiment: Test A postemergence; conditions: Echinochloa crus-galli, post-emergence, 240 h, read-out: Plant response rating, Barnyardgrass
Method in brief: as §1

[10] = test system: blackgrass (Alopecurus myosuroides); experiment: Test A postemergence; conditions: Alopecurus myosuroides, post-emergence, 240 h, read-out: Plant response rating, Blackgrass
Method in brief: as §1

corn (Zea mays) = experiment: Test A postemergence; conditions: Zea mays, post-emergence, 240 h
Method in brief: as §1

[11] = test system: giant foxtail (Setaria faberii); experiment: Test A postemergence; conditions: Setaria faberi, post-emergence, 240 h, read-out: Plant response rating, Foxtail, Giant
Method in brief: as §1

[12] = test system: pigweed (Amaranthus retroflexus); experiment: Test A postemergence; conditions: Amaranthus retroflexus, post-emergence, 240 h, read-out: Plant response rating, Pigweed
Method in brief: as §1

[13] = test system: ragweed (common ragweed, Ambrosia elatior); experiment: Test A postemergence; conditions: Ambrosia artemisiifolia, post-emergence, 240 h, read-out: Plant response rating, Ragweed
Method in brief: as §1

[14] = test system: ryegrass, Italian (Italian ryegrass, Lolium multiflorum); experiment: Test A postemergence; conditions: Lolium multiflorum, post-emergence, 240 h, read-out: Plant response rating, Ryegrass, Italian
Method in brief: as §1

[15] = test system: wheat (Triticum aestivum); experiment: Test A postemergence; conditions: Triticum aestivum, post-emergence, 240 h, read-out: Plant response rating, Wheat
Method in brief: as §1

[16] = test system: barnyardgrass (Echinochloa crus-galli); experiment: Test B flooded paddy test; conditions: Echinochloa crus-galli, 250 g ai/ha, Flood; 0 to 100 scale where 0 is no effect and 100 is complete control; read-out: Barnyardgrass plant response rating
Method in brief: (§2)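 Compound goes directly into floodwater once pots are flooded 3 cm above soil, targeting plants at two leaves; the water depth is then held for the test duration. Plants sit 13–15 d in a greenhouse and are rated visually, 100 denoting complete control.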

[17] = test system: ducksalad (Heteranthera limosa); experiment: Test B flooded paddy test; conditions: Heteranthera limosa, 250 g ai/ha, Flood; 0 to 100 scale where 0 is no effect and 100 is complete control; read-out: Ducksalad plant response rating
Method in brief: as §2

rice (Oryra sativa) = experiment: Test B flooded paddy test; conditions: Oryza sativa, 250 g ai/ha, Flood; 0 to 100 scale where 0 is no effect and 100 is complete control; read-out: Rice plant response rating
Method in brief: as §2

[18] = test system: sedge, umbrella (small-flower umbrella sedge, Cyperus difformis); experiment: Test B flooded paddy test; conditions: Cyperus difformis, 250 g ai/ha, Flood; 0 to 100 scale where 0 is no effect and 100 is complete control; read-out: Sedge, Umbrella plant response rating
Method in brief: as §2

[19] = 125 g ai/ha, Postemergence, visual injury after approximately 10 d, 0 to 100 scale where 0 is no effect and 100 is complete control
[20] = 500 g ai/ha, postemergence, visual injury, 0 to 100 scale (0 no effect, 100 complete control), approx. 10 d

For `Cc1cc([C@H]2CN(C)C(=O)[C@@H]2C(=O)Nc2ccccc2F)cc(C)c1Br` [Compound 1023], the pest or weed control at 125 g/ha (Kochia (Kochia scoparia) [1]; 125 g ai/ha, Preemergence, visual injury rating after approximately 10 d, read-out: Kochia plant response rating (0 to 100 scale, 0 is no effect, 100 is complete control)) was 0%, the pest or weed control at 500 g/ha (Kochia (Kochia scoparia) [1]; 500 g ai/ha, preemergence, visual injury rating about 10 d after treatment, 0 to 100 scale (0 no effect, 100 complete control), read-out: Kochia plant response rating) was 0% and the pest or weed control at 125 g/ha ([2]; 125 g ai/ha, Preemergence, visual injury rating after approximately 10 d, read-out: Barnyardgrass plant response rating (0 to 100 scale, 0 is no effect, 100 is complete control)) was 90%. It also gave a pest or weed control at 500 g/ha ([2]; 500 g ai/ha, preemergence, visual injury rating about 10 d after treatment, 0 to 100 scale (0 no effect, 100 complete control), read-out: Barnyardgrass plant response rating) of 90%, a pest or weed control at 125 g/ha ([3]; 125 g ai/ha, Preemergence, visual injury rating after approximately 10 d, read-out: Foxtail, Giant plant response rating (0 to 100 scale, 0 is no effect, 100 is complete control)) of 90% and a pest or weed control at 500 g/ha ([3]; 500 g ai/ha, preemergence, visual injury rating about 10 d after treatment, 0 to 100 scale (0 no effect, 100 complete control), read-out: Foxtail, Giant plant response rating) of 90%. The pest or weed control at 125 g/ha ([4]; 125 g ai/ha, Preemergence, visual injury rating after approximately 10 d, read-out: Pigweed plant response rating (0 to 100 scale, 0 is no effect, 100 is complete control)) was 30%, the pest or weed control at 500 g/ha ([4]; 500 g ai/ha, preemergence, visual injury rating about 10 d after treatment, 0 to 100 scale (0 no effect, 100 complete control), read-out: Pigweed plant response rating) was 30% and the pest or weed control at 125 g/ha ([5]; 125 g ai/ha, Preemergence, visual injury rating after approximately 10 d, read-out: Ragweed plant response rating (0 to 100 scale, 0 is no effect, 100 is complete control)) was 0%. For the same compound, the pest or weed control at 500 g/ha ([5]; 500 g ai/ha, preemergence, visual injury rating about 10 d after treatment, 0 to 100 scale (0 no effect, 100 complete control), read-out: Ragweed plant response rating) was 40%, the pest or weed control at 125 g/ha ([6]; 125 g ai/ha, Preemergence, visual injury rating after approximately 10 d, read-out: Ryegrass, Italian plant response rating (0 to 100 scale, 0 is no effect, 100 is complete control)) was 50% and the pest or weed control at 500 g/ha ([6]; 500 g ai/ha, preemergence, visual injury rating about 10 d after treatment, 0 to 100 scale (0 no effect, 100 complete control), read-out: Ryegrass, Italian plant response rating) was 70%. For the same compound, the pest or weed control at 125 g/ha [7, 19] was 60%, the pest or weed control at 500 g/ha [7, 20] was 60% and the pest or weed control at 125 g/ha (Kochia (Kochia scoparia) [8]; [19]) was 50%. For the same compound, the pest or weed control at 500 g/ha (Kochia (Kochia scoparia) [8]; [20]) was 50%, the pest or weed control at 125 g/ha [9, 19] was 90% and the pest or weed control at 500 g/ha [9, 20] was 90%. The pest or weed control at 125 g/ha [10, 19] was 0%, the pest or weed control at 500 g/ha [10, 20] was 20% and the Corn plant response rating (crop injury, 0 = no effect, 100 = complete kill) at 125 g/ha (corn (Zea mays); [19]) was 0%. The Corn plant response rating (crop injury, 0 = no effect, 100 = complete kill) at 500 g/ha (corn (Zea mays); [20]) was 50%, the pest or weed control at 125 g/ha [11, 19] was 70% and the pest or weed control at 500 g/ha [11, 20] was 90%. For the same compound, the pest or weed control at 125 g/ha [12, 19] was 0%, the pest or weed control at 500 g/ha [12, 20] was 30% and the pest or weed control at 125 g/ha [13, 19] was 0%. It also gave a pest or weed control at 500 g/ha [13, 20] of 0%, a pest or weed control at 125 g/ha [14, 19] of 30% and a pest or weed control at 500 g/ha [14, 20] of 30%. The plant injury at 125 g/ha [15, 19] was 0%, the plant injury at 500 g/ha [15, 20] was 20% and the pest or weed control at 250 g/ha [16] was 40%. For the same compound, the pest or weed control at 250 g/ha [17] was 65%, the pest or weed control at 250 g/ha (rice (Oryra sativa)) was 20% and the pest or weed control at 250 g/ha [18] was 0%.
